This test deals with TMD8 cells. In words: Resazurin cell viability (proliferation) assay in TMD8 DLBCL cells. It is filed as cell-based. As to conditions: Homo sapiens, TMD8 cells (BTK dependent), 72 h, 50% growth inhibition vs vehicle, read-out: TMD8 Prol GI50. In a few lines:
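TMD8 cells were seeded at 1×10^4 per well and treated 3 h later with compound, in an 8-point 1:4 dilution series starting at 1 μM, or DMSO, for 72 h at 37° C. Resazurin was added at 13 μg/ml final for the last 2 h, and fluorescence was read at ex 530/em 600 nm. GI50 versus vehicle was derived by curve fitting from triplicates.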
(In general: Resazurin is reduced to fluorescent resorufin, in cell work by metabolically active cells.)

Our source for the GI50 values is patent US12441733B2, “Substituted 2,4-dioxotetrahydropyrimidines as intermediates in the synthesis of bruton's tyrosine kinase inhibitors” (Novartis AG, priority 2018, dated 2025).

As usually defined, the GI50 is the concentration giving 50% growth inhibition.

On to `COc1ccc(C(=O)NCCN2CCC3(CC2)CCN(Cc2ccc(-c4cc5c(-c6cc(F)cc(NC(=O)c7ccc(C(C)(C)O)cc7F)c6C)ncnc5[nH]4)cc2)CC3)cc1N1CCC(=O)NC1=O` [Compound 44, N-(3-(6-(4-((9-(2-(3-(2,4-dioxotetrahydropyrimidin-1(2H)-yl)-4-methoxybenzamido)ethyl)-3,9-diazaspiro[5.5]undecan-3-yl)methyl)phenyl)-7H-pyrrolo[2,3-d]pyrimidin-4-yl)-5-fluoro-2-methylphenyl)-2-fluoro-4-(2-hydroxypropan-2-yl)benzamide], for which the GI50 came to 3.74 nM.

For the molecule `Cc1c(NC(=O)c2ccc(C(C)(C)O)cc2F)cc(F)cc1-c1ncnc2[nH]c(-c3ccc(CCN4CCC5(CC4)CCN(C(=O)c4ccc(F)c(N6CCC(=O)NC6=O)c4)CC5)cc3)cc12` [Compound 47, N-(3-(6-(4-(2-(9-(3-(2,4-dioxotetrahydropyrimidin-1(2H)-yl)-4-fluorobenzoyl)-3,9-diazaspiro[5.5]undecan-3-yl)ethyl)phenyl)-7H-pyrrolo[2,3-d]pyrimidin-4-yl)-5-fluoro-2-methylphenyl)-2-fluoro-4-(2-hydroxypropan-2-yl)benzamide], the GI50 worked out at 0.53 nM.
